Assay results taken from US7872134B2, “2-{[2-(substituted amino)ethyl]sulfonyl}ethyl N,N-bis(2-chloroethyl)phosphorodiamidates” (Telik, Inc., priority 2007, dated 2011).

How the values were obtained:
[1] = tested on: DLD-1 (colorectal adenocarcinoma); assay: Cytotoxicity/Growth Inhibition Assay (CellTiter-Glo); assay type: cell-based; conditions: Homo sapiens, 96 h, DLD-1 cells, hydrochloride salts, cultured 4 days
Experimental: The following examples illustrate the beneficial effect of the compounds of this invention against human cancer cell lines in vitro.
The human cancer cell line DLD-1 (colorectal adenocarcinoma) was obtained from the American Type Culture Collection, Manassas, Va., U.S.A. The CellTiter-Glo assay kit was obtained from Promega Corporation, Madison, Wis., U.S.A. All products were used in accordance with manufacturer's directions. All assays were conducted in triplicate wells, with dimethyl sulfoxide (DMSO) solvent control. The extent of cell growth was expressed as a percentage of the signal from the solvent control wells.
Log-phase cells were trypsinized, collected by centrifugation, and resuspended in a small volume of fresh medium, and the density of viable cells was determined following Trypan Blue staining. Cells were diluted in fresh media (3×10^3 cells/mL for DLD-1), and added at 150 μL/well to 96-well plates, and incubated for several hours to allow attachment in the case of adherent cells. […] After incubation for 10 minutes at room temperature, and the plate was read with a luminometer.

MIA PaCa-2 tumor = assay: MiaPaCa-2 Xenograft Assay, Intraperitoneal Administration; assay type: in vivo, athymic nu/nu mice; conditions: for tumor mass inhibition relative to vehicle: autopsy day 19 after transplantation
Experimental: Male athymic nu/nu mice, 6-8 weeks old (approximately 20 g), were implanted subcutaneously in the right fore flank with 20-30 mg pieces of MIA PaCa-2 tumor harvested from similar nu/nu mice that had previously been implanted with the MIA PaCa-2 tumor. […] A group of mice was treated with compound 1A as the hydrochloride salt dissolved in aqueous 5% dextrose, at 100 mg/Kg by intraperitoneal injection once/day for 5 consecutive days; with vehicle and cyclophosphamide (30 mg/Kg) also administered by intraperitoneal injection for the same time. Tumor mass was estimated from volume on days 10, 13, and 17; and measured at autopsy on day 19 after transplantation.

CCN(CC)CCS(=O)(=O)CCOP(N)(=O)N(CCCl)CCCl (centres unmarked) [compound 1A, 2-{[2-(diethylamino)ethyl]sulfonyl}ethyl N,N-bis(2-chloroethyl)phosphorodiamidate]
IC50 [1]: 13 µM
tumor mass inhibition relative to vehicle (MIA PaCa-2 tumor; 100 mg/Kg intraperitoneal once/day for 5 consecutive days, hydrochloride salt): 83%
safety at the dose tested (MIA PaCa-2 tumor; nu/nu mice, 100 mg/Kg intraperitoneal once/day for 5 days): safe and non-toxic

N[C@@H](CCC(=O)N[C@@H](CS(=O)(=O)CCOP(=O)(N(CCCl)CCCl)N(CCCl)CCCl)C(=O)N[C@@H](C(=O)O)c1ccccc1)C(=O)O [canfosfamide, reference compound]
IC50 [1]: 11 µM

O=P1(N(CCCl)CCCl)NCCCO1 (centres unmarked) [cyclophosphamide, reference compound]
tumor mass inhibition relative to vehicle (MIA PaCa-2 tumor; 30 mg/Kg intraperitoneal once/day for 5 consecutive days): 84%
